Patent US4593090A, “Novel nitrosourea compounds, method for preparing same, and pharmaceutical composition containing same” (Gogo Kimura, priority 1981, dated 1986)
Like-named read-outs stand apart in the source and are kept apart here.

Assays:
Leukemia L1210 [1] = assay: Activity against Leukemia L1210, intraperitoneal, increase in life span of mice; type: in vivo, female mice (BDF1 family); details: for Survivors after 60 days / Max. ILS % / Therapeutic ratio TR: ip; for Survivors after 60 days: 6-membered group; for Max. ILS %: 60-day observation, versus control; for Therapeutic ratio TR: O.D./ILS30; for ED (maximum ILS) / ED30: Mus musculus, L1210, ip; for ED (maximum ILS): read-out: O.D. (optimum dosage); for ED30: read-out: ILS30
Procedure, shortened: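 Dosing started 24 h after ip implantation of 1×10^5 L1210 cells into groups of 6 female BDF1 mice, by ip or oral route daily for 5 consecutive days. Survival was followed for 60 days; increase in life span was scored against untreated mice, with therapeutic ratio from optimum dose over ILS30 dose.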

Leukemia L1210 [2] = assay: Activity against Leukemia L1210, oral, increase in life span of mice; type: in vivo, female mice (BDF1 family); details: for Survivors after 60 days / Max. ILS % / Therapeutic ratio TR: oral; for Survivors after 60 days: 6-membered group; for Max. ILS %: 60-day observation, versus control; for Therapeutic ratio TR: O.D./ILS30; for ED (maximum ILS) / ED30: Mus musculus, L1210; for ED (maximum ILS): read-out: O.D. (optimum dosage); for ED30: read-out: ILS30
Description: Tests were conducted in accordance with the method for measuring antitumor activity of National Cancer Center Tokyo (A, Hoshi et al, Farumashia 9 464 (1973)). Test compounds were each intraperitoneally (referred to as ip) or orally (referred to as op) administered once a day for 5 successive days to a 6-membered group of femal mice (BDF1 family, each weighing 20 to 23 g) 24 hours after 1×10^5 cells of Leukemia L1210 have been implantated into the abdominal cavities of the mice, and the effect was evaluated by comparing the survival days of treated groups with those of an untreated group of mice (control group) in 60-day observation. An increase percentage of life span (ILS%) was calculated from said average survival days compared with those of the control group. Further, therapeutic ratio (O.D./ILD30, referred to as T.R.) of each tested compound was calculated from the daily dosage of the compound necessary to increase said average survival days by 30% as compared with the control group (this dosage is referred to as ILS 30) and the daily dosage giving a maximum increase of life span to mice implantated with L1210 cells, namely an optimum dosage (referred to as O.D.). The results of five successive days intraperitoneal administrations of test compounds were shown in Tables I to III, and those of five successive oral administrations in Table IV.

[3] = Acute toxicity (LD50, Behrens-Karber method); type: in vivo, ICR mice; details: ip, mortality during 30 days; for LD50 at 720 h: mouse, in vivo
Description: Test compounds, dissolved or suspended in 0.5% aqueous CMC, were each intraperitoneally administered to ICR mice in a dose of 0.1 ml per 10 g body weight. LD50 (mg/kg) value of each test compound was calculated from the mortality of mice during 30 days by the Behrens-Karber method.

Ehrlich acites carcinoma = assay: Growth-inhibiting effect against Ehrlich acites carcinoma; type: in vivo, male mice; details: Mus musculus, Ehrlich, 120 h, 5 days; for response vs control in vivo at 25 mg/kg: 25 mg/kg/day ip; for response vs control in vivo at 100 mg/kg: 100 mg/kg/day ip
Description: Ehrlich acites carcinoma (1×10^7 cells) was implantated into the abdominal cavities of a 6-membered group of male mice. Test compounds (solutions or suspensions in 1% Nikohl HCO-60) were each intraperioneally administered once a day 5 successive days to the mice 24 hrs. after the implantation. Total packed cell volumes [TPCV, namely, total packed volumes of Acites carcinoma] were determined 7 days after the implantation to calculate growth ratio of tumor [T/C%; T: packed volume of Acites carcinoma in treated groups, C: packed volume of Acites carcinoma in an untreated group]. Acitivity is represented by - when T/C% is 100-66, by + when T/C% 65-41, by ++ when T/C% 40-11, and by +++ when T/C% 10-0.

[4] = ip once a day for 5 successive days, daily dosage giving maximum increase of life span
[5] = ip once a day for 5 successive days, daily dosage increasing average survival days by 30%
[6] = oral once a day for 5 successive days, daily dosage giving maximum increase of life span
[7] = oral once a day for 5 successive days, daily dosage increasing average survival days by 30%

Molecule | O.D. (optimum dosage) (Leukemia L1210 [1]; [4]) | ILS30 (Leukemia L1210 [1]; [5]) | Survivors after 60 days (Leukemia L1210 [1]) | Max. ILS % (Leukemia L1210 [1]) | Therapeutic ratio TR (Leukemia L1210 [1]) | O.D. (optimum dosage) (Leukemia L1210 [2]; [6]) | ILS30 (Leukemia L1210 [2]; [7]) | Survivors after 60 days (Leukemia L1210 [2]) | Max. ILS % (Leukemia L1210 [2]) | Therapeutic ratio TR (Leukemia L1210 [2]) | LD50 [3] | ED (maximum ILS) (Leukemia L1210 [1]; [4]) | ED30 (Leukemia L1210 [1]; [5]) | ED (maximum ILS) (Leukemia L1210 [2]; [6]) | ED30 (Leukemia L1210 [2]; [7]) | LD50 at 720 h [3] | response vs control in vivo at 25 mg/kg (Ehrlich acites carcinoma; read-out: Activity) | response vs control in vivo at 25 mg/kg (Ehrlich acites carcinoma; read-out: T/C %) | response vs control in vivo at 100 mg/kg (Ehrlich acites carcinoma; read-out: Activity) | response vs control in vivo at 100 mg/kg (Ehrlich acites carcinoma; read-out: T/C %)
3-tert-butyl-3-(1-methoxy-2-methoxyethyl α-D-glucopyranose-6-yl)-1-(2-chloroethyl)-1-nitrosourea [Compound 195] | 160 mg/kg | 2.89 mg/kg | 6/6 | > 700% | 55.4 | 200 mg/kg | 8.51 mg/kg | 5/6 | > 620% | 23.5 | 540 mg/kg | – | – | – | – | – | – | – | – | –
COC(C)CN(C[C@H]1O[C@H](OC(C)C)[C@H](O)[C@@H](O)[C@@H]1O)C(=O)N(CCCl)N=O (stereo partly drawn) [Compound 2, 3-(2-methoxy-n-propyl)-3-(isopropyl α-D-glucopyranose-6-yl)-1-(2-chloroethyl)-1-nitrosourea] | – | – | 6/6 | > 700% | 60.9 | – | – | 6/6 | > 700% | 24.5 | – | 140 mg/kg | 2.3 mg/kg | 180 mg/kg | 7.35 mg/kg | 420 mg/kg | – | – | – | –
CCOCCN(C(=O)N(CCCl)N=O)C1C(OC2CCCCC2)OC(CO)C(O)C1O [Compound 64, 3-(2-ethoxyethyl)-3-(cyclohexyl α-D-glucopyranose-2-yl)-1-(2-chloroethyl)-1-nitrosourea] | – | – | 4/6 | > 450% | 42.0 | – | – | 4/6 | > 460% | 18.2 | – | 200 mg/kg | 4.76 mg/kg | 240 mg/kg | 13.2 mg/kg | 650 mg/kg | – | – | – | –
CCCCOC1OC(CO)C(O)C(N(CC(C)OC)C(=O)N(CCCl)N=O)C1O [Compound 83, 3-(2-methoxy-n-propyl)-3-(n-butyl α-D-glucopyranose-3-yl)-1-(2-chloroethyl)-1-nitrosourea] | – | – | 4/6 | > 425% | 39.8 | – | – | 3/6 | > 360% | 14.3 | – | 200 mg/kg | 5.03 mg/kg | 240 mg/kg | 16.8 mg/kg | 665 mg/kg | – | – | – | –
COCCN(C(=O)N(CCCl)N=O)C1C(O)C(CO)OC(OC2CCCCC2)C1O [Compound 89, 3-(2-methoxyethyl)-3-(cyclohexyl α-D-glucopyranose-3-yl)-1-(2-chloroethyl)-1-nitrosourea] | – | – | 6/6 | > 700% | 63.9 | – | – | 4/6 | > 450% | 16.8 | – | 170 mg/kg | 2.66 mg/kg | 210 mg/kg | 12.5 mg/kg | 690 mg/kg | – | – | – | –
COCC(C)N(C(=O)N(CCCl)N=O)[C@H]1[C@@H](OCC(C)C)O[C@H](CO)[C@H](O)[C@@H]1O (stereo partly drawn) [Compound 124, 3-(1-methyl-2-methoxyethyl)-3-(isobutyl α-D-galactopyranose-2-yl)-1-(2-chloroethyl)-1-nitrosourea] | – | – | 3/6 | > 360% | 39.6 | – | – | – | – | – | – | 210 mg/kg | 5.3 mg/kg | – | – | 745 mg/kg | 0 to 10% | 0% | 0 to 10% | 0%
COCCCN(C[C@H]1O[C@H](OCC(C)C)[C@@H](O)[C@@H](O)[C@H]1O)C(=O)N(CCCl)N=O [Compound 146, 3-(3-methoxy-n-propyl)-3-(isobutyl α-D-talopyranose-6-yl)-1-(2-chloroethyl)-1-nitrosourea] | – | – | 5/6 | > 620% | 56.4 | – | – | – | – | – | – | 180 mg/kg | 3.19 mg/kg | – | – | 595 mg/kg | 0 to 10% | 0% | 0 to 10% | 0%
COCCCO[C@H]1O[C@H](CN(C(=O)N(CCCl)N=O)C(C)(C)C)[C@@H](O)[C@H](O)[C@H]1O [Compound 179, 3-tert-butyl-3-(3-methoxy-n-propyl α-D-glucopyranose-6-yl)-1-(2-chloroethyl)-1-nitrosourea] | – | – | 6/6 | > 700% | 64.4 | – | – | – | – | – | – | 180 mg/kg | 2.79 mg/kg | – | – | 560 mg/kg | 0 to 10% | 0% | 0 to 10% | 0%
CC(C)(C)CN(C[C@H]1O[C@H](OCC2CCCO2)[C@H](O)[C@@H](O)[C@@H]1O)C(=O)N(CCCl)N=O (stereo partly drawn) [Compound 188, 3-neopentyl-3-(tetrahydrofurfuryl α-D-glucopyranose-6-yl)-1-(2-chloroethyl)-1-nitrosourea] | – | – | 6/6 | > 700% | 62.5 | – | – | – | – | – | – | 170 mg/kg | 2.72 mg/kg | – | – | 550 mg/kg | 0 to 10% | 0% | 0 to 10% | 0%
CC(C)(C)N(C[C@H]1O[C@H](OCC2CCCO2)[C@H](O)[C@@H](O)[C@@H]1O)C(=O)N(CCCl)N=O (stereo partly drawn) [Compound 193, 3-tert-butyl-3-(tetrahydrofurfuryl α-D-glucopyranose-6-yl)-1-(2-chloroethyl)-1-nitrosourea] | – | – | 6/6 | > 700% | 63.4 | – | – | – | – | – | – | 160 mg/kg | 2.52 mg/kg | – | – | 550 mg/kg | 0 to 10% | 0% | 0 to 10% | 0%
